{
  "source": "paper PMC4492579",
  "about": "“Potent and Selective Triazole-Based Inhibitors of the Hypoxia-Inducible Factor Prolyl-Hydroxylases with Activity in the Murine Brain” (PLoS ONE, 2015)",
  "origin": "cited, not measured here",
  "key": {"JMJD1A (KDM3A)": {"target": "T1, JMJD1A (KDM3A) (Homo sapiens, UniProt Q9Y4C1)", "T1 sequence (Q9Y4C1 1-1321)": "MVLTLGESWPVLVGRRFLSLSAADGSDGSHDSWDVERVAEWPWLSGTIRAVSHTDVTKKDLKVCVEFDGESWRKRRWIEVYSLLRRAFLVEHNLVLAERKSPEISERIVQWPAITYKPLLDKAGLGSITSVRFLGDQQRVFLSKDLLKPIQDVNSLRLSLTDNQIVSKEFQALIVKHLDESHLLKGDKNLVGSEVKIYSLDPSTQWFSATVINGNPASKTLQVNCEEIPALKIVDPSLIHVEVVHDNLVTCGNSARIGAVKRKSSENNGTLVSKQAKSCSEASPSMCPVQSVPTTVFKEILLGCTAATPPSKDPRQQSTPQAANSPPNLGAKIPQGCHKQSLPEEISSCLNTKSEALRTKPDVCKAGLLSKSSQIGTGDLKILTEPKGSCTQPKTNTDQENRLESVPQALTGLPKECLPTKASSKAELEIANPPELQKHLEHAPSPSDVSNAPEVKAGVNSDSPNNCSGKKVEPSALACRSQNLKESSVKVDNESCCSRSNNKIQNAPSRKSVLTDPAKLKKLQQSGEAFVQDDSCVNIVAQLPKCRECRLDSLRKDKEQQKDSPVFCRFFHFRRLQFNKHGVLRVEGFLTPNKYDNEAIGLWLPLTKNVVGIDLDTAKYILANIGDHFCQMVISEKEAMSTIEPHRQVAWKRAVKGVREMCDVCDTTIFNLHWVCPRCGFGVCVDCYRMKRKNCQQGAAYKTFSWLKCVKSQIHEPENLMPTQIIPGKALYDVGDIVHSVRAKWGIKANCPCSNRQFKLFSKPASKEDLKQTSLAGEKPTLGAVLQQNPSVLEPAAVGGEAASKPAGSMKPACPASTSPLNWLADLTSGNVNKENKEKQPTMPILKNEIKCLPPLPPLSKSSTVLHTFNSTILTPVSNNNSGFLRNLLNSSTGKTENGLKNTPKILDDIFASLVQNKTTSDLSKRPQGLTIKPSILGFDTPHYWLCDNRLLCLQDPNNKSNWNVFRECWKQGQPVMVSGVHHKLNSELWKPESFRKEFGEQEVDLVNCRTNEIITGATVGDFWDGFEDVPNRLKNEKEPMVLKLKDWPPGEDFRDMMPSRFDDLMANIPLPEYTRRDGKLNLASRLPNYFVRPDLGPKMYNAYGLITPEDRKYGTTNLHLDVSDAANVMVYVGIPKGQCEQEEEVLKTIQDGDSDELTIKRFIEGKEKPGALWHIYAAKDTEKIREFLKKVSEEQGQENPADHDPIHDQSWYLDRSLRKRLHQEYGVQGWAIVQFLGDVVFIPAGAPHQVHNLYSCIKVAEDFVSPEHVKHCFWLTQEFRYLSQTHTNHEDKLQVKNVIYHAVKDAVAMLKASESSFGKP", "parameters": "method as in PMID 26682036", "details": "cited from earlier work"}, "FBXL11 (KDM2A)": {"target": "T2, FBXL11 (KDM2A) (Homo sapiens, UniProt Q9Y2K7)", "T2 sequence (Q9Y2K7 1-1162)": "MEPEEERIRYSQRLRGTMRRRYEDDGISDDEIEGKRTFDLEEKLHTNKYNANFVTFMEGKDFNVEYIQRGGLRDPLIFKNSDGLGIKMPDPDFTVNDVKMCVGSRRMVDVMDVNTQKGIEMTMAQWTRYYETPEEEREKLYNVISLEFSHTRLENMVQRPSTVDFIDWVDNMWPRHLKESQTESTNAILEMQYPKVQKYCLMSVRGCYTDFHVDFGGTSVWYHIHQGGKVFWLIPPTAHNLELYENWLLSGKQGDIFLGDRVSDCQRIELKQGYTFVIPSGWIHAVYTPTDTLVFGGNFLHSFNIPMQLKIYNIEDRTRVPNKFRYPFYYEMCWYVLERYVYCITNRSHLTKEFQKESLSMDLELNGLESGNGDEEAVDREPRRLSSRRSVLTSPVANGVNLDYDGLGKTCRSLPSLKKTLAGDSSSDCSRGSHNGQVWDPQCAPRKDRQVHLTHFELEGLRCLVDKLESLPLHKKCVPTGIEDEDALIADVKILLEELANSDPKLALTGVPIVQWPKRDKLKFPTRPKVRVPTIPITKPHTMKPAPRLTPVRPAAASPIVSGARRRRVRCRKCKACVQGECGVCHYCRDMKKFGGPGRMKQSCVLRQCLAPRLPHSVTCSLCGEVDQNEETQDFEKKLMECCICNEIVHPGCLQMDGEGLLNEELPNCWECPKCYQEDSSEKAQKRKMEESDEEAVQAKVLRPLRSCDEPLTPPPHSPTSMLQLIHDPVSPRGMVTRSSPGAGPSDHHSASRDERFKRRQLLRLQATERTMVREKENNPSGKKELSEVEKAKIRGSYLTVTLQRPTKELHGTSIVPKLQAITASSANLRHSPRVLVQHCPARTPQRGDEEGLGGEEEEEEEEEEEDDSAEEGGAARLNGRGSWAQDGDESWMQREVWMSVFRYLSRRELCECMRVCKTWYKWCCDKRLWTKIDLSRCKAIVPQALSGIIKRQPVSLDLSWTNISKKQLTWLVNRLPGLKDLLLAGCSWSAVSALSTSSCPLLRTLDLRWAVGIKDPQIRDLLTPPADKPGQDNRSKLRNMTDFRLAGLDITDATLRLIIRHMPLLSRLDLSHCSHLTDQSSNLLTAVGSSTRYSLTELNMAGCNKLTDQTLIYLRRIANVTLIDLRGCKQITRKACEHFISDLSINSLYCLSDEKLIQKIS", "parameters": "method as in PMID 26682036", "details": "cited from earlier work"}},
  "note": "pIC50: −log10 of the molar value.",
  "data": [
    {"smiles": "O=C(O)CNC(=O)c1c(O)c2ccccc2n(Cc2ccccc2)c1=O", "note": "[IOX2]", "values": [
      {"measurement": "pIC50", "setting": "JMJD1A (KDM3A)", "result": "< 4.00"},
      {"measurement": "pIC50", "setting": "FBXL11 (KDM2A)", "result": 4.28}
    ]}
  ]
}
